Data on 22 molecules can be found in US9540380B2, “Imidazotriazinone compounds” (Ironwood Pharmaceuticals, Inc., priority 2010, dated 2017).

pIC50: −log10 of the molar value. Bounds are passed on as bounds.

In general, pIC50 refers to the negative decadic logarithm of the IC50, by convention in mol/L.

The assay deals with T1, PDE9A2 (Homo sapiens, UniProt O76083).
T1 construct: purchased Reaction Biology Corporation, Malvern, Pa
T1 sequence (O76083 1-533 isoform O76083-2): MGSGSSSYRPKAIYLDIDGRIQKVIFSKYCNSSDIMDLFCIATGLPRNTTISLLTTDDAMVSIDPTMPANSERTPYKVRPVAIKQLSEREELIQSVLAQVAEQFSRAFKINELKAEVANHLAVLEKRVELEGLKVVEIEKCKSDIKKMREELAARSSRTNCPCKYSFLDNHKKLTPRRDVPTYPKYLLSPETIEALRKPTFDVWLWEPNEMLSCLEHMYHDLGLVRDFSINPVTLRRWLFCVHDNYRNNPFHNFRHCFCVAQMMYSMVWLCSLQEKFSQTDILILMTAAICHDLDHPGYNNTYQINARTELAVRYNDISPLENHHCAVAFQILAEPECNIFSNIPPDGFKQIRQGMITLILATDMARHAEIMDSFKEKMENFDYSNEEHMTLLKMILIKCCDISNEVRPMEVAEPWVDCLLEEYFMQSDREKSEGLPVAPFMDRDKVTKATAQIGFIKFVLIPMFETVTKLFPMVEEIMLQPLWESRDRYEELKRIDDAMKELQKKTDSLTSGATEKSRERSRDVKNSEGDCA
The assay is described as follows: Phosphodiesterase Enzyme Screening Assay, PDE9A2 (Caliper LabChip mobility-shift). The format is biochemical. The note with it: 10 concentrations, 4.0 μM cGMP substrate, 1 hour at R.T.; read-out: Band (PDE9A2 IC50). From the text:
Compounds of the invention were screened against PDE1A, PDE1B, PDE2A, PDE3A, PDE3B, PDE4A1A, PDE4B1, PDE4D3, PDE5A1, PDE6C, PDE7A, PDE8A1, PDE9A2, PDE10A2 AND PDE11A isoforms of the phosphodiesterase enzyme to determine activity and overall selectivity through comparative analysis. The assay generally consists of testing the compounds of the invention at 10 concentrations. Where 8-methoxy-IBMX and Zaprinast were used as reference inhibitors.
The phosphodiesterase enzyme isoforms were obtained from a commercial retailer (Reaction Biology Corporation, Malvern, Pa.) for use in the instant screening assay.
The analysis was completed using the Caliper LabChip 3000 and a 12-sipper LabChip. LabChip assays are separations-based, meaning that the product and substrate are electrophoretically separated, thereby minimizing interferences and yielding the highest data quality available on any screening platform. Z′ factors for both the EZ Reader and LC3000 enzymatic assays are routinely in the 0.8 to 0.9 range. High Z′ values, few false positives, few false negatives and analytical quality reproducibility are the reasons cited for the increasing reliance on the LabChip assays.
The off-chip incubation mobility-shift phosphodiesterase assay uses a microfluidic chip to measure the conversion of a fluorescent cyclic AMP substrate to a 5′-AMP product, or a cyclic GMP substrate to a 5′-GMP product. The reaction mixture, from a microtiter plate well, is introduced through a capillary sipper onto the chip, where the fluorescent substrate and product are separated by electrophoresis and detected via laser-induced fluorescence. […] The precision of microfluidics allows researchers to detect subtle interactions between drug candidates and therapeutic targets. The technology is able to detect both strong and weak inhibitors with high accuracy, and routinely identifies drug candidates that conventional techniques miss.
Reactions were carried out in 100 mM HEPES (pH 7.5), 5 mM MgCl2, 1 mM DTT, 0.003% Brij, 4.0 μM cGMP substrate. The reaction was started by addition of cGMP or cAMP and incubated for 1 hour at R.T. The reaction was terminated by the addition of stop buffer containing 100 mM HEPES (pH 7.5), 15 mM EDTA, 0.015% Brij-35, 5% DMSO. Cyclic AMP/GMP substrate and 5′-AMP/5′-GMP product were separated by charge using electrophoretic mobility shift. Product formed was compared to control wells to determine inhibition or enhancement of enzyme activity.
One or more reference compounds, depending on phosphodiesterase isoform, selected from 8-methoxy-IBMX, Zaprinast, Trequinsin, Pentoxifyline, Rolipram, and Vinpocetine, Dipyridamole, and BRL-50481 were run alongside client samples to ensure data quality. The resulting IC50 is compared against the historical average and must be within 3-fold of this average.
Data points were averages of quadruplicate wells and error bars represented the SEM for each point. IC50s were determined using GraphPad Prism Version 5.01 and the log (inhibitor) vs. response variable slope curve fit.
`Cc1ccc(Cl)cc1-c1ncc2c(=O)[nH]c([C@@H]3CNC[C@H]3C)nn12` (relative stereo) [(−)-7-(5-chloro-2-methylphenyl)-2-((3,4-trans)-4-methylpyrrolidin-3-yl)imidazo[5,1-f][1,2,4]triazin-4(3H)-one]: the pIC50 is 5.00 to 6.00.

Consider `C[C@@H]1CN(Cc2ccccc2F)C[C@H]1c1nn2c(C3CCOCC3)ncc2c(=O)[nH]1` (single isomer, unassigned) [(+)-2-((3,4-trans)-1-(2-fluorobenzyl)-4-methylpyrrolidin-3-yl)-7-(tetrahydro-2H-pyran-4-yl)imidazo[5,1-f][1,2,4]triazin-4(3H)-one], for which the pIC50 was greater than 6.00. For `C[C@@H]1CN(Cc2ccc(F)cc2)C[C@H]1c1nn2c(C3CCOCC3)ncc2c(=O)[nH]1` (single isomer, unassigned) [(+)-2-((3,4-trans)-1-(4-fluorobenzyl)-4-methylpyrrolidin-3-yl)-7-(tetrahydro-2H-pyran-4-yl)imidazo[5,1-f][1,2,4]triazin-4(3H)-one] the value was greater than 6.00; for `COc1cccc(CN2C[C@@H](C)[C@H](c3nn4c(C5CCOCC5)ncc4c(=O)[nH]3)C2)n1` (single isomer, unassigned) [(+)-2-((3,4-trans)-1-((6-methoxypyridin-2-yl)methyl)-4-methylpyrrolidin-3-yl)-7-(tetrahydro-2H-pyran-4-yl)imidazo[5,1-f][1,2,4]triazin-4(3H)-one], greater than 6.00. Then `C[C@@H]1CN(Cc2cn3ncccc3n2)C[C@H]1c1nn2c(C3CCOCC3)ncc2c(=O)[nH]1` (single isomer, unassigned) [(+)-2-((3,4-trans)-1-(imidazo[1,2-b]pyridazin-2-ylmethyl)-4-methylpyrrolidin-3-yl)-7-(tetrahydro-2H-pyran-4-yl)imidazo[5,1-f][1,2,4]triazin-4(3H)-one], with greater than 6.00.

Regarding `C[C@@H]1CN(Cc2ccc3nccn3n2)C[C@H]1c1nn2c(C3CCOCC3)ncc2c(=O)[nH]1` (single isomer, unassigned) [(+)-2-((3,4-trans)-1-(imidazo[1,2-b]pyridazin-6-ylmethyl)-4-methylpyrrolidin-3-yl)-7-(tetrahydro-2H-pyran-4-yl)imidazo[5,1-f][1,2,4]triazin-4(3H)-one], the pIC50 is greater than 6.00. For `CCS(=O)(=O)N1CCC(c2ncc3c(=O)[nH]c([C@@H]4CN(Cc5ccccc5)C[C@H]4C)nn23)CC1` (single isomer, unassigned) [(+)-2-((3,4-trans)-1-benzyl-4-methylpyrrolidin-3-yl)-7-(1-(ethylsulfonyl)piperidin-4-yl)imidazo[5,1-f][1,2,4]triazin-4(3H)-one] the value was greater than 6.00. For `C[C@@H]1CN(Cc2ccccc2)C[C@H]1c1nn2c(C(C)(C)O)ncc2c(=O)[nH]1` (single isomer, unassigned) [(+)-2-((3,4-trans)-1-benzyl-4-methylpyrrolidin-3-yl)-7-(2-hydroxypropan-2-yl)imidazo[5,1-f][1,2,4]triazin-4(3H)-one] the value was 5.00 to 6.00; for `C[C@@H]1CN(Cc2ccccc2)C[C@H]1c1nn2c(C3CCC(F)(F)CC3)ncc2c(=O)[nH]1` (single isomer, unassigned) [(+)-2-((3,4-trans)-1-benzyl-4-methylpyrrolidin-3-yl)-7-(4,4-difluorocyclohexyl)imidazo[5,1-f][1,2,4]triazin-4(3H)-one], greater than 6.00.

Turning to `Cc1cc(F)ccc1-c1ncc2c(=O)[nH]c([C@@H]3CN(Cc4ccccc4)C[C@H]3C)nn12` (single isomer, unassigned) [(+)-2-((3,4-trans)-1-benzyl-4-methylpyrrolidin-3-yl)-7-(4-fluoro-2-methylphenyl)imidazo[5,1-f][1,2,4]triazin-4(3H)-one], the pIC50 was greater than 6.00. For `Cc1ccc(Cl)cc1-c1ncc2c(=O)[nH]c([C@@H]3CN(Cc4ccccc4)C[C@H]3C)nn12` (single isomer, unassigned) [(+)-2-((3,4-trans)-1-benzyl-4-methylpyrrolidin-3-yl)-7-(5-chloro-2-methylphenyl)imidazo[5,1-f][1,2,4]triazin-4(3H)-one] the value was greater than 6.00; for `C[C@@H]1CN(Cc2ccccc2)C[C@H]1c1nn2c(-c3ccoc3)ncc2c(=O)[nH]1` (single isomer, unassigned) [(+)-2-((3,4-trans)-1-benzyl-4-methylpyrrolidin-3-yl)-7-(furan-3-yl)imidazo[5,1-f][1,2,4]triazin-4(3H)-one], greater than 6.00; for `C[C@@H]1CN(Cc2cnccn2)C[C@H]1c1nn2c(C3CCOCC3)ncc2c(=O)[nH]1` (single isomer, unassigned) [(+)-2-((3,4-trans)-4-methyl-1-(pyrazin-2-ylmethyl)pyrrolidin-3-yl)-7-(tetrahydro-2H-pyran-4-yl)imidazo[5,1-f][1,2,4]triazin-4(3H)-one], greater than 6.00. Then `C[C@@H]1CN(Cc2ccccn2)C[C@H]1c1nn2c(C3CCOCC3)ncc2c(=O)[nH]1` (single isomer, unassigned) [(+)-2-((3,4-trans)-4-methyl-1-(pyridin-2-ylmethyl)pyrrolidin-3-yl)-7-(tetrahydro-2H-pyran-4-yl)imidazo[5,1-f][1,2,4]triazin-4(3H)-one], with greater than 6.00. Take `C[C@@H]1CN(Cc2ncccn2)C[C@H]1c1nn2c(C3CCOCC3)ncc2c(=O)[nH]1` (single isomer, unassigned) [(+)-2-((3,4-trans)-4-methyl-1-(pyrimidin-2-ylmethyl)pyrrolidin-3-yl)-7-(tetrahydro-2H-pyran-4-yl)imidazo[5,1-f][1,2,4]triazin-4(3H)-one]: the pIC50 was greater than 6.00. Consider `C[C@@H]1CN(Cc2ncc3ccccc3n2)C[C@H]1c1nn2c(C3CCOCC3)ncc2c(=O)[nH]1` (single isomer, unassigned) [(+)-2-((3,4-trans)-4-methyl-1-(quinazolin-2-ylmethyl)pyrrolidin-3-yl)-7-(tetrahydro-2H-pyran-4-yl)imidazo[5,1-f][1,2,4]triazin-4(3H)-one], for which the pIC50 was greater than 6.00.

Turning to `C[C@@H]1CN(Cc2ccc3ccccc3n2)C[C@H]1c1nn2c(C3CCOCC3)ncc2c(=O)[nH]1` (single isomer, unassigned) [(+)-2-((3,4-trans)-4-methyl-1-(quinolin-2-ylmethyl)pyrrolidin-3-yl)-7-(tetrahydro-2H-pyran-4-yl)imidazo[5,1-f][1,2,4]triazin-4(3H)-one], the pIC50 was greater than 6.00.

Take `CCS(=O)(=O)N1CCC(c2ncc3c(=O)[nH]c([C@@H]4CN(Cc5ncccn5)C[C@H]4C)nn23)CC1` (single isomer, unassigned) [(+)-7-(1-(ethylsulfonyl)piperidin-4-yl)-2-((3,4-trans)-4-methyl-1-(pyrimidin-2-ylmethyl)pyrrolidin-3-yl)imidazo[5,1-f][1,2,4]triazin-4(3H)-one]: the pIC50 was 5.00 to 6.00. Then `CC(=O)N1CCC(c2ncc3c(=O)[nH]c([C@@H]4CN(Cc5ccccc5)C[C@H]4C)nn23)CC1` (single isomer, unassigned) [(+)-7-(1-acetylpiperidin-4-yl)-2-((3,4-trans)-1-benzyl-4-methylpyrrolidin-3-yl)imidazo[5,1-f][1,2,4]triazin-4(3H)-one], with greater than 6.00; and `CC(=O)N1CCC(c2ncc3c(=O)[nH]c([C@@H]4CN(Cc5ncccn5)C[C@H]4C)nn23)CC1` (single isomer, unassigned) [(+)-7-(1-acetylpiperidin-4-yl)-2-((3,4-trans)-4-methyl-1-(pyrimidin-2-ylmethyl)pyrrolidin-3-yl)imidazo[5,1-f][1,2,4]triazin-4(3H)-one], with 5.00 to 6.00; and `C[C@@H]1CN(Cc2ncccn2)C[C@H]1c1nn2c(C3CCC(F)(F)CC3)ncc2c(=O)[nH]1` (single isomer, unassigned) [(+)-7-(4,4-difluorocyclohexyl)-2-((3,4-trans)-4-methyl-1-(pyrimidin-2-ylmethyl)pyrrolidin-3-yl)imidazo[5,1-f][1,2,4]triazin-4(3H)-one], with greater than 6.00. On to `C[C@@H]1CN(Cc2cccc(F)c2)C[C@H]1c1nn2c(C3CCOCC3)ncc2c(=O)[nH]1` (single isomer, unassigned) [(−)-2-((3,4-trans)-1-(3-fluorobenzyl)-4-methylpyrrolidin-3-yl)-7-(tetrahydro-2H-pyran-4-yl)imidazo[5,1-f][1,2,4]triazin-4(3H)-one], for which the pIC50 is greater than 6.00.
